The subject of assay [1] is A2E-BDP present in human retinal pigment epithelial cells (ARPE-19). Briefly: Screening of ability to remove A2E-fluorescent labeling substance (A2E-BDP), lysate fluorescence. The class given is cell-based. The note with it: ARPE-19, 24 h, ARPE-19 loaded with 10 μM A2E-BDP 24 h, test compound 50 μM once, fluorescence ex 485/em 535 nm, read-out: Capacity (%) to remove A2E-BDP at 50 μM.

The next assay deals with LC3-II (autophagy flux). Briefly: Autophagy flux in A2E-accumulated ARPE-19 with or without bafilomycin. The note with it: A2E 25 μM 24 h; 10, 25, 50 μM, 12 h; bafilomycin 2 nM 4 h; FIG. 9. The class given is cell-based, human. As to the method: It was measured whether example 17 compound of the present invention increases autophagy flux in the ARPE-19 cell line in which A2E is accumulated. That is, the ARPE-19 cell line was dispensed into a 6-well plate at a concentration of 1×10^5 cells/well and cultured for 24 hours. The cells were treated with A2E at a concentration of 25 μM for 24 hours. The cells were treated with example 17 compound of the present invention at concentrations of 10, 25, and 50 μM for 12 hours each. The method of treating with bafilomycin (2 nM for 4 hours), preparing cell lysate, and measuring LC3-II by Western method was the same as in Experimental Example 8.

In another assay the test system is p62 protein. Briefly: Restoration of autophagy inhibited by A2E and blue light (p62 Western). The following applies: ARPE-19, A2E accumulation and blue light; FIG. 10. The class given is cell-based, human. The text has this: Therefore, it was confirmed whether the compound of the present invention can restore autophagy inhibited by A2E and blue light.
During the autophagosome formation process, p62 specifically binds to a substance to be degraded and simultaneously binds to LC3 protein to form an autophagosome. When autophagy is inhibited, aggregates composed of p62 and ubiquitinated proteins are formed and p62 accumulates in the cell. Therefore, by measuring the change in the level of intracellular p62, the improvement effect of the compound of the present invention on autophagy inhibited by A2E and blue light can be evaluated, and the experiment was conducted as follows.
Specifically, ARPE-19 cells were seeded into 6-well plates at a concentration of 2×10^4 cells/well and cultured for 24 hours. To induce A2E accumulation in the ARPE-19 cell line, the cells were treated with A2E three times at a concentration of 25 μM at 48-hour intervals. 24 hours after the final A2E treatment, the cells were treated with example 17 compound twice at 24-hour intervals each. […] The amount of intracellular p62 was measured by Western immunoblotting using an anti-p62 antibody (Santa Cruz, TX, USA). The amount of intracellular β-actin was measured in the same manner using anti-β-actin antibody (Santa Cruz) and used as a control.

The next assay relates to LC3-II. Briefly: Autophagy activation in ARPE-19 (LC3-II Western, GFP-LC3 puncta). The note with it: 12 h. The class given is cell-based, human. The procedure: ARPE-19 was dispensed into a 6-well plate at a concentration of 1×10^5 cells/well and cultured for 24 hours. Then, cells were treated with example 17 compound of the present invention at concentrations of 10, 25, and 50 μM for 12 hours. Then, a cell lysis buffer containing a protease inhibitor was added to prepare a cell lysate. The LC3-II level was measured by Western immunoblotting using an anti-LC3-II antibody (Cell Signaling Technology, MA, USA). As an internal control, an antibody against β-actin (Cell Signaling Technology) was used and measured by Western immunoblotting in the same manner as above, and is shown in FIG. 6 (upper graph).
Meanwhile, intracellular autophagosome formation was observed as follows. The ARPE-19 cells were transfected with a plasmid expressing GFP-LC3 (Addgene Inc., MA, USA) using Lipofectamine™ 2000 reagent (Invitrogen, Carlsbad, CA, USA). After 48 hours of culture, the cells were treated with example 17 compound of the present invention at a concentration of 25 μM. After additional 12 hours of culture, the cells were fixed using 4% paraformaldehyde for 10 minutes. The cells were then washed three times with PBS every 5 minutes. Finally, the puncta formation of GFP-LC3 was observed using a confocal laser scanning microscope (Nikon, Tokyo, Japan). […]

Where only a bound is given, the exact number is not on record here.

Take `C=CCOCc1cc(-c2cc(CC=C)ccc2OC)no1` [Example 17, 3-(5-allyl-2-methoxyphenyl)-5-((allyloxy)methyl)isoxazole]: the inhibition at 50 µM in assay [1] was at least 60%. The “autophagy flux in A2E-accumulated ARPE-19” value in the assay with LC3-II (autophagy flux) was “significantly increased the autophagy flux”. For the same compound, the p62 protein concentration entry in the assay with p62 protein is given as “decreased in a concentration-dependent manner”. Besides, in the assay on LC3-II (ARPE-19, 10, 25, 50 μM, FIG. 6 graph), the “LC3-II level (Western immunoblotting)” value is on record as “an increase in LC3-II”. Moreover, in the assay with LC3-II (GFP-LC3 transfected ARPE-19, 25 μM, FIG. 6 photograph), the “puncta formation of GFP-LC3 (confocal microscope)” value is on record as “intracellular LC3-II puncta were observed”.
